Data from publication PMC8989888, “Development of optimized drug-like small molecule inhibitors of the SARS-CoV-2 3CL protease for treatment of COVID-19” (Nature Communications, 2022).
pEC50, pIC50: −log10 of the molar value. Values joined by “and” are separate entries in the source; they are usually repeats but may differ in a detail not shown here. Equal values may be shown once. Read-outs that look alike come from different tables or passages of the source.

How the values were obtained:
SARS-CoV-2 3CL protease [1] = target: T1, SARS-CoV-2 3CL protease (Severe acute respiratory syndrome coronavirus 2, UniProt P0DTD1); experiment: biochemical; conditions: for kinact/KI: read-out: SARS-CoV-2 3CLpro kinact/KI
SARS-CoV-2 [2] = experiment: microbe, parasite or virus in culture; type: cell-based; conditions: for pEC50: Severe acute respiratory syndrome coronavirus 2, 24 h, read-out: SARS-CoV-2 Huh-7ACE2 EC50
SARS-CoV-2 3CL protease [3] = target: T1, SARS-CoV-2 3CL protease; experiment: biochemical
SARS-CoV-2 [4] = experiment: microbe, parasite or virus in culture; type: cell-based; conditions: Severe acute respiratory syndrome coronavirus 2, Vero C1008, read-out: SARS-CoV-2 Vero E6 EC50
[5] = 20 nM protease, read-out: SARS-CoV-2 3CLpro IC50
[6] = Concentration of inhibitor (nM) 0.19382
[7] = Concentration of inhibitor (nM) 0.49485
[8] = Concentration of inhibitor (nM) 0.79588
[9] = Concentration of inhibitor (nM) 1.09691
[10] = Concentration of inhibitor (nM) 1.39794
[11] = Concentration of inhibitor (nM) 1.69897
[12] = Concentration of inhibitor (nM) 2
[13] = Concentration of inhibitor (nM) 2.30103
[14] = Concentration of inhibitor (nM) -0.10721
[15] = Concentration of inhibitor (nM) -0.40824
[16] = Concentration of inhibitor (nM) 2.60206

SMILES	observed inactivation rate vs compound concentration (Figure S19, replicate values) (SARS-CoV-2 3CL protease [1])	kinact/KI (SARS-CoV-2 3CL protease [1]) [M⁻¹ s⁻¹]	inhibition of SARS-CoV-2 (Figure s17b dose-response, replicate values) (SARS-CoV-2 [2])	pEC50 (SARS-CoV-2 [2])	pIC50 (SARS-CoV-2 3CL protease [3]; [5])	normalized activity, dose-response curve (Figure S16) (SARS-CoV-2 3CL protease [3]; [6])	normalized activity, dose-response curve (Figure S16) (SARS-CoV-2 3CL protease [3]; [7])	normalized activity, dose-response curve (Figure S16) (SARS-CoV-2 3CL protease [3]; [8])	normalized activity, dose-response curve (Figure S16) (SARS-CoV-2 3CL protease [3]; [9])	normalized activity, dose-response curve (Figure S16) (SARS-CoV-2 3CL protease [3]; [10])	normalized activity, dose-response curve (Figure S16) (SARS-CoV-2 3CL protease [3]; [11])	normalized activity, dose-response curve (Figure S16) (SARS-CoV-2 3CL protease [3]; [12])	normalized activity, dose-response curve (Figure S16) (SARS-CoV-2 3CL protease [3]; [13])	normalized activity, dose-response curve (Figure S16) (SARS-CoV-2 3CL protease [3]; [14])	normalized activity, dose-response curve (Figure S16) (SARS-CoV-2 3CL protease [3]; [15])	normalized activity, dose-response curve (Figure S16) (SARS-CoV-2 3CL protease [3]; [16])	other results
O=C(N[C@@H](CC1CC1)C(=O)N[C@@H](C[C@@H]1CCNC1=O)C(O)S(=O)(=O)O)OCc1ccccc1 (stereo partly drawn) [NK01-14]	0.0144 and -0.00118 and 0.0245 and 0.0068 and 0.0252 and 0.0272 and 0.0287 and 0.0225 and 0.0192 and -0.00612 and 0.0023 and 0.0187	71700	107.44 and 106.681 and 107.657 and 104.164 and 95.5823 and 98.4941 and 57.1014 and 42.1437 and 64.5278 and 21.8135 and 20.6648 and 21.9136 and 20.2988 and 22.5837 and -3.217 and 20.0515 and 23.307 and 7.747 and 3.643 and 5.208 and 12.2626	7.59	7.66	88.3287 and 88.0525	79.1436 and 83.9088	76.0359 and 72.2376	63.3978 and 55.1105	56.2155 and 53.3149	37.1547 and 46.616	24.2403 and 25.2762	7.666 and 9.392	96.8923 and 94.268	109.254 and 100	–	–
O=C(N[C@@H](CC1CC1)C(=O)N[C@@H](C[C@@H]1CCNC1=O)C(O)S(=O)(=O)O)OCc1ccccc1Cl (stereo partly drawn) [NK01-69]	0.0682 and 0.0478 and 0.0347 and 0.0227 and 0.0119 and 0.047 and -0.00793 and 0.0043 and 0.0066 and 0.0454 and 0.0603 and 0.0339 and 0.0459 and 0.0266 and 0.0345 and 0.0301 and 0.0444 and 0.0675	70000	112.139 and 77.9057 and 91.5513 and 79.8842 and 49.1022 and 70.5924 and 62.1924 and 62.9155 and 78.4113 and -0.7628 and 38.0643 and 11.5151 and -8.426 and 17.4096 and 4.8166 and -9.308 and 10.7894 and 11.3275 and 55.1502 and 29.5769 and 12.5491	7.46	7.62	88.5666 and 86.5188	72.8669 and 79.1809	75 and 74.3174	65.1024 and 60.8362	47.5256 and 39.3345	32.1672 and 24.5734	–	4.608 and 4.693	106.997 and 100.683	89.5904 and 100	–	–
O=C(N[C@@H](CC1CC1)C(=O)N[C@@H](C[C@@H]1CCNC1=O)C(O)S(=O)(=O)O)OCc1cccc(Cl)c1 (stereo partly drawn) [NK01-57]	0.0175 and 0.0065 and 0.0112 and -0.01176 and 0.0254 and -0.00163 and 0.0094 and -0.00166 and -0.05051 and -0.00614 and -0.01353 and -0.00565 and -0.00112 and -0.0108 and -0.00266 and -0.00784 and 0.0038 and -0.0081 and -0.00313 and -0.00276 and 0.0019	–	104.54 and 74.4176 and 64.8123 and 55.4072 and 79.8077 and 89.5745 and 61.4462 and 18.0183 and 12.437 and -10.4634 and -16.0501 and 3.693 and 24.8584 and -12.4097 and 6.795 and 29.8589 and -3.6952 and 33.5228 and 9.378 and -5.3463 and 36.5619	7.04	7.89	95.6172 and 86.9248	85.9021 and 78.3053	79.0358 and 66.0336	62.3083 and 48.2104	43.3163 and 27.8305	26.2235 and 13.9518	–	6.939 and 9.715	107.889 and 102.703	100 and 101.315	9.934 and 9.2038	–
CC(C)C[C@H](NC(=O)OCc1cccc2ccccc12)C(=O)N[C@@H](C[C@@H]1CCNC1=O)C(O)S(=O)(=O)O (stereo partly drawn) [EB55]	0.0457 and 0.0269 and 0.0571 and -0.0002 and 0.0258 and 0.0554 and 0.0425 and 0.0417 and 0.0134 and 0.0205 and 0.022 and 0.0066	21700	100.856 and 96.5428 and 101.322 and 91.4468 and 90.1295 and 92.8292 and 65.5151 and 69.1898 and 72.8142 and 38.0936 and 42.5735 and 35.1981 and 28.1354 and 24.4902 and 21.8952 and 10.9114 and 19.9799 and 11.8441 and 9.792 and 14.2234 and 10.7567	7.96	7.14	97.6947 and 91.9164	90.7787 and 89.6887	89.0003 and 83.5464	84.4555 and 78.5499	77.2102 and 70.0207	64.1027 and 59.773	47.4055 and 42.8102	16.7117 and 14.6768	100.329 and 102.132	100	–	pEC50 (SARS-CoV-2 [4]): 5.52
CC(C)C[C@H](NC(=O)OCc1cc(F)c(F)cc1F)C(=O)N[C@@H](C[C@@H]1CCNC1=O)C(O)S(=O)(=O)O (stereo partly drawn) [NK01-48]	0.0181 and 0.0442 and 0.0252 and 0.0284 and 0.021 and 0.0128 and 0.0148 and 0.0158 and 0.0136 and 0.0037 and 0.0168 and 0.02 and 0.0021 and 0.0084 and 0.0011	5000	125.494 and 126.964 and 86.3185 and 118.605 and 134.4 and 122.016 and 84.6265 and 61.89 and 119.128 and 54.4703 and 35.4275 and 15.416 and 32.4697 and 30.0193 and 47.7694 and 0.4554 and -12.5084 and -5.078 and 34.0338 and 10.0006 and 6.443	7.82	7.04	99.5986 and 99.2546	84.289 and 78.0963	92.7179 and 89.3922	76.6628 and 70.7569	79.2431 and 69.9541	62.156 and 55.5619	48.3945 and 50.2294	33.7729 and 21.5023	97.1904 and 78.0963	97.1904 and 100	18.3486 and 12.328	–
CCOC(=O)C=CC(CC1CCNC1=O)NC(=O)C(CC(C)C)NC(=O)OCc1ccccc1 (stereo not drawn) [AZVIII-41A]	–	–	–	–	–	–	–	–	–	–	–	–	–	–	–	–	Normalized SARS-CoV-2 3CL protease activity (SARS-CoV-2 3CL protease [3]; 0.2 µM protease with 50 µM tested compound, replicates): 0.05469 and 0.07659 and 0.08287; IC90 (SARS-CoV-2 3CL protease [3]; 200 nM protease): > 50000 nM; Protease activity (normalized) (SARS-CoV-2 3CL protease [3]; 200 nM protease, log10[nM] 0.404879, replicates): 0.9534 and 1.001 and 1.046; Protease activity (normalized) (SARS-CoV-2 3CL protease [3]; 200 nM protease, log10[nM] 0.882, replicates): 0.9954 and 1.035 and 1.1072; Protease activity (normalized) (SARS-CoV-2 3CL protease [3]; 200 nM protease, log10[nM] 1.35912, replicates): 0.9788 and 1.032 and 1.063; Protease activity (normalized) (SARS-CoV-2 3CL protease [3]; 200 nM protease, log10[nM] 1.83624, replicates): 0.8536 and 0.8662 and 0.892; Protease activity (normalized) (SARS-CoV-2 3CL protease [3]; 200 nM protease, log10[nM] 2.31336, replicates): 0.8339 and 0.8695 and 0.9444; Protease activity (normalized) (SARS-CoV-2 3CL protease [3]; 200 nM protease, log10[nM] 2.79048, replicates): 0.86 and 0.9004 and 0.9124; Protease activity (normalized) (SARS-CoV-2 3CL protease [3]; 200 nM protease, log10[nM] 3.26761, replicates): 0.9439 and 0.9917 and 1.018; Protease activity (normalized) (SARS-CoV-2 3CL protease [3]; 200 nM protease, log10[nM] 3.74473, replicates): 0.9845 and 1.046 and 1.061; Protease activity (normalized) (SARS-CoV-2 3CL protease [3]; 200 nM protease, log10[nM] 4.22185, replicates): 0.8912 and 0.9195 and 0.9785; Protease activity (normalized) (SARS-CoV-2 3CL protease [3]; 200 nM protease, log10[nM] 4.69897, replicates): 0.4548 and 0.5207 and 0.5344; Protease activity (normalized) (SARS-CoV-2 3CL protease [3]; 200 nM protease, log10[nM] -0.0722425, replicates): 0.8359 and 0.8847 and 0.9024; Protease activity (normalized) (SARS-CoV-2 3CL protease [3]; 200 nM protease, log10[nM] -0.549364, replicates): 0.7778 and 0.8128 and 0.8188; pIC50 (SARS-CoV-2 3CL protease [3]; 200 nM protease, read-out: IC50): < 4.30
